Measurements: US10435361B2, “Kinase inhibitors” (Topivert Pharma Limited, priority 2013, dated 2019)
pIC50: −log10 of the molar value. Like-named read-outs stand apart in the source and are kept apart here.

Columns and labels:
d-U937 cells = assay: LPS-induced TNFα/IL-8 release in d-U937 cells; type: cell-based; conditions: Homo sapiens, dU937, assay (aa)
Protocol: U937 cells, a human monocytic cell line, are differentiated to macrophage-type cells by incubation with phorbol myristate acetate (PMA; 100 ng/mL) for 48 to 72 hr. Cells are pre-incubated with final concentrations of test compound for 2 hr and are then stimulated with 0.1 μg/mL of LPS (from E. Coli: 0111:B4, Sigma) for 4 hr. The supernatant is collected for determination of TNFα and IL-8 concentrations by sandwich ELISA (Duo-set, R&D systems). […] The relative 50% effective concentration (REC50) is determined from the resultant concentration-response curve. The inhibition of IL-8 production is calculated at each concentration of test compound by comparison with vehicle control.

PBMCs [1] = assay: IL-2 and IFN gamma release in CD3/CD28 stimulated PBMC cells; type: cell-based; conditions: Homo sapiens, assay (c)
In short: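 Healthy-donor PBMCs, density-gradient isolated, stimulated on plates pre-coated with anti-CD3 (0.3 μg/mL) and anti-CD28 (3 μg/mL) antibodies, with compound, for 3 days under standard culture conditions. IC50 derived from the dose-response curve.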

HT29 cells = assay: IL-1β-induced IL-8 release in HT29 cells; type: cell-based; conditions: Homo sapiens, HT-29, assay (d), read-out: IC50 Values for Inhibition of Cytokine Release HT29 cells IL-8
Protocol: HT29 cells, a human colon adenocarcinoma cell line, are plated in a 96 well plate (24 hr) and pre-treated with compounds at the desired concentration for 2 hours before addition of 5 ng/mL of IL-1β (Abcam) for 24 hours. Supernatants are harvested for IL-8 quantification by Sandwich ELISA (Duo-set, R&D System). The IC50 is determined from the dose response curve.

PBMCs [2] = assay: Cell mitosis assay in PBMCs; type: cell-based; conditions: Homo sapiens, PBMC, 5 μg/mL
In short: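 Human PBMCs from healthy donors, density-gradient isolated, stimulated with 2% PHA 48 h, then exposed 20 h to test compounds; demecolcine 0.1 μg/mL added 2 h before harvest. Fixed/permeabilised cells stained for phospho-histone H3 and propidium iodide; mitotic lymphocytes counted by flow cytometry.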

SCID animals = assay: Adoptive transfer in mice (CD45RBhigh cells into SCID animals); type: in vivo; conditions: end of the study
Protocol: On Study day 0, female Balb/C mice are terminated and spleens obtained for CD45RB^high cell isolation (Using SCID IBD cell Separation protocol). Approximately 4×10^5 cells/mL CD45RB^high cells are then injected intraperitoneally (100 μL/mouse) into female SCID animals. On study day 14, mice are weighed and randomized into treatment groups based on body weight. On Day 14, compounds are administered BID, via oral gavage, in a peanut oil vehicle at the dose levels outlined below in Tables 6a and 6b and a dose volume of 5 mL/kg. Treatment continues until study day 42, at which point the animals are necropsied 4 hours after the morning administration. The colon length and weight are recorded and used as a secondary endpoint in the study as a measurement of colon oedema. The colon is then divided into six cross-sections, four of which are used for histopathology scoring (primary endpoint) and two are homogenised for cytokine analysis. Data shown is the % inhibition of the induction window between naïve animals and vehicle animals, where higher inhibition implies closer to the non-diseased, naïve, phenotype.

BDF1 mice = assay: TNBS-induced colitis in mice; type: in vivo; conditions: conducted over 2 days; vehicle corn oil/transcutol/maisine/cremophor ELP
Protocol: Non-fasted, 10-12 week old, male BDF1 mice are dosed by oral gavage twice daily with either vehicle (5 mL/kg), reference item (Budesonide 2.5 mg/kg) or test compound (1 or 5 mg/kg) one day before (Day −1) stimulation of the inflammatory response by treatment with 2,4,6-trinitrobenzenesulphonic acid (TNBS) (15 mg/mL in 50% ethanol/50% saline). On Day 0 of the study TNBS (200 μL) is administered intra-colonically via a plastic catheter with BID dosing of the vehicle, reference or test compound continuing for 2 or 4 days. During the study, animals are weighed every day and stool observations are made and recorded as a score, based on stool consistency. At the time of sacrifice on Day 2 (or Day 4), the large intestine is removed and the length and weight recorded. Sections of the colon are taken for histopathology scoring to determine disease severity.

[3] = Plasma pharmacokinetics and total colon tissue distribution in mice, single oral administration; type: in vivo, C57BL/6 mice; conditions: male, C57BL/6, mouse, 5 mg/kg, read-out: Median plasma concentration
Protocol: (§1) Studies were conducted by Sai Life Sciences (Hinjewadi, Pune, India) to investigate the plasma pharmacokinetics and total colon tissue distribution of compounds of the invention. In particular, pharmacokinetic studies were carried out in: • male C57BL/6 mice, following a single oral administration; and • male Wistar rats following a single intravenous or oral administration.

[4] = Plasma pharmacokinetics in rats, single intravenous or oral administration; type: in vivo; conditions: male, Wistar, rat
Protocol: as §1

PBMCs [5] = assay: LPS-induced TNFα/IL-8 release in PBMC cells; type: cell-based; conditions: Homo sapiens, assay (b), read-out: IC50 Values for Inhibition of Cytokine Release PBMCs IL-8
In short: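 Healthy-donor PBMCs isolated by density gradient were pretreated with compound for 2 h, then stimulated with 1 ng/mL LPS (E. coli 0111:B4) for 24 h at 37° C., 5% CO2. IL-8 and TNFα in supernatants measured by sandwich ELISA.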

[6] = Hydrolytic stability study (DMSO/water 3:1, 60° C.); type: physicochemical
Protocol: Chemical stability of compounds of the invention was assessed in a mixture of DMSO and water (3:1) at a test compound concentration of 1 mg/mL
Agilent, Waters X-Select C18, 2.5 μm, 4.6×30 mm column, 4 min method, 5-95%
MeCN/water (0.1% formic acid).
Column Oven Temperature 40° C.
Sample Preparation • A 1.0 mg sample of test compound was dissolved in 750 μL of DMSO. Water (250 μL) was added slowly, ensuring no precipitation occurred.
Recording Stability • A 50 μL aliquot of the test solution was removed and analysed in duplicate by 5 μL HPLC injections. The peak area for the test compound was recorded following manual integration of the corresponding UV trace. • The test solution was heated to 60° C., with stirring, and 50 μL aliquots removed for HPLC analysis at 5 and 24 h timepoints.

[7] = method: relative to 10 μg/mL BIRB796 (REC50), read-out: IC50 Values for Inhibition of Cytokine Release dU937 cells TNFα
[8] = read-out: IC50 Values for Inhibition of Cytokine Release dU937 cells IL-8
[9] = read-out: IC50 Values for Inhibition of Cytokine Release PBMCs IFNγ
[10] = read-out: IC50 Values for Inhibition of Cytokine Release PBMCs IL-2
[11] = po, 5 mg/kg, read-out: Median plasma concentration

| pIC50 (d-U937 cells; [7]) | pIC50 (d-U937 cells; [8]) | pIC50 (HT29 cells) | SMILES | pIC50 (PBMCs [1]; [9]) | pIC50 (PBMCs [1]; [10]) | inhibition at 5 µg/mL (PBMCs [2]) | activity in TNBS-induced colitis (histopathology analysis) (BDF1 mice) | pIC50 (PBMCs [5]) | other results |
| --- | --- | --- | --- | --- | --- | --- | --- | --- | --- |
| 9.40 | 8.89 | 8.09 | COCCOCCOCCNC(=O)c1cc(Nc2cc(Oc3ccc(NC(=O)Nc4cc(C(C)(C)C)cc(NS(C)(=O)=O)c4OC)c4ccccc34)ccn2)cc(OC)c1 [Example 3, 3-((4-((4-(3-(5-(tert-Butyl)-2-methoxy-3-(methylsulfonamido)phenyl)ureido)naphthalen-1-yl)oxy)pyridin-2-yl)amino)-5-methoxy-N-(2-(2-(2-methoxyethoxy)ethoxy)ethyl)benzamide] | 8.02 | 6.72 | 31.7% | displayed substantial activity | 8.92 | activity in adoptive transfer model (ratios of colon weight to length) (SCID animals): displayed significant activity; concentration at 1 h [3]: 0 ng/mL; concentration at 2 h [3]: 0 ng/mL; concentration at 4 h [3]: 0 ng/mL; concentration at 8 h [3]: 0 ng/mL; concentration at 12 h [3]: 0 ng/mL; concentration at 24 h [3]: 0 ng/mL; concentration at 0.5 h [4, 11]: 0 ng/mL; concentration at 1 h [4, 11]: 0 ng/mL; concentration at 2 h [4, 11]: 0 ng/mL; concentration at 4 h [4, 11]: 0 ng/mL; concentration at 6 h [4, 11]: 0 ng/mL; concentration at 8 h [4, 11]: 0 ng/mL; concentration at 12 h [4, 11]: 0 ng/mL; concentration at 24 h [4, 11]: 0 ng/mL; clearance ([4]; rats, intravenous 0.25 mg/kg): 5.1 mL/min/kg |
| 8.92 | 8.85 | 8.03 | COCCOCCOCCOc1cc(Nc2cc(Oc3ccc(NC(=O)Nc4cc(C(C)(C)C)cc(NS(C)(=O)=O)c4OC)c4ccccc34)ccn2)cc(OC)c1 [Example 11, N-(5-(tert-Butyl)-2-methoxy-3-(3-(4-((2-((3-methoxy-5-(2-(2-(2-methoxyethoxy)ethoxy)-ethoxy)phenyl)amino)pyridin-4-yl)oxy)naphthalen-1-yl)ureido)phenyl)-methanesulfonamide] | 7.75 | 7.13 | 33.5% |  | 8.59 |  |
| 9.30 | 9.22 | 8.52 | COCCOCCOCCOCCOCCOCCOCCOc1cc(Nc2nccc(Oc3ccc(NC(=O)Nc4cc(C(C)(C)C)cc(NS(C)(=O)=O)c4OC)c4ccccc34)n2)cc(OC)c1 [Example 14, N-(3-(3-(4-((2-((3-(2,5,8,11,14,17,20-Heptaoxadocosan-22-yloxy)-5-methoxyphenyl)amino)-pyrimidin-4-yl)oxy)naphthalen-1-yl)ureido)-5-(tert-butyl)-2-methoxyphenyl)-methanesulfonamide] | 7.71 | 6.74 | 49.8% |  | 8.77 |  |
|  | 8.85 | 8.29 | COCCOCCOCCOc1cc(Nc2nccc(Oc3ccc(NC(=O)Nc4cc(C(C)(C)C)cc(NS(C)(=O)=O)c4OC)c4ccccc34)n2)cc(OC(F)F)c1 [Example 17, N-(5-(tert-Butyl)-3-(3-(4-((2-((3-(difluoromethoxy)-5-(2-(2-(2-methoxyethoxy)ethoxy)-ethoxy)phenyl)amino)pyrimidin-4-yl)oxy)naphthalen-1-yl)ureido)-2-methoxyphenyl)-methanesulfonamide] | 8.09 | 7.18 | 37% |  | 8.74 |  |
|  |  | 8.68 | COCCOCCOCCOc1cc(Nc2cc(Oc3ccc(NC(=O)Nc4cc(C(C)(C)C)cc(C(N)=O)c4OC)c4ccccc34)ccn2)cc(OC)c1 [Example 34, 5-(tert-Butyl)-2-methoxy-3-(3-(4-((2-((3-methoxy-5-(2-(2-(2-methoxyethoxy)ethoxy)ethoxy)phenyl)amino)pyridin-4-yl)oxy)naphthalen-1-yl)ureido)benzamide] | 8.12 | 7.20 | 40.4% | displayed substantial activity | 8.52 |  |
|  |  | 7.88 | COc1cc(Nc2cc(Oc3ccc(NC(=O)Nc4cc(C(C)(C)C)cc(NS(C)(=O)=O)c4OC)c4ccccc34)ccn2)cc(C(=O)NCCN2CCN(C)CC2)c1 [Example 79, 3-((4-((4-(3-(5-(tert-Butyl)-2-methoxy-3-(methylsulfonamido)phenyl)ureido)naphthalen-1-yl)oxy)pyridin-2-yl)amino)-5-methoxy-N-(2-(4-methylpiperazin-1-yl)ethyl)benzamide] | 8.23 | 6.55 | 54.4% | displayed substantial activity | 8.47 |  |
|  |  |  | C#Cc1cc(Nc2nccc(Oc3ccc(NC(=O)Nc4cc(C(C)C)nn4-c4ccc(C)cc4)c4ccccc34)n2)cc(C(=O)NCCN2CCOCC2)c1 [Reference Compound B, 3-ethynyl-5-((4-((4-(3-(3-isopropyl-1-(p-tolyl)-1H-pyrazol-5-yl)ureido)naphthalen-1-yl)oxy)pyrimidin-2-yl)amino)-N-(2-morpholinoethyl)benzamide, reference compound] |  |  |  |  |  | decomposition in hydrolytic stability study ([6]; 1 mg/mL in DMSO:water (3:1), 60° C., 5 and 24 h): underwent substantial decomposition; % Parent Remaining ([6]; DMSO/water 3:1, 0 min): 100%; % Parent Remaining ([6]; DMSO/water 3:1, 60° C., 300 min): 82%; % Parent Remaining ([6]; DMSO/water 3:1, 60° C., 1440 min): 36% |
